Reference: US6420571B2, “Methods for preparing antiviral calanolide compounds” (Sarawak MediChem Pharmaceuticals, Inc., priority 1999, dated 2002)

Assays:
[1] = system: AZT-resistant G-9106 strain of HIV; details: cited from earlier work
[2] = system: pyridinone-resistant A17 virus; details: cited from earlier work
[3] = system: HIV-1; details: CEM-SS cells; read-out: EC50, HIV-1 replication; cited from earlier work
[4] = system: HIV-1; details: down to a concentration of 0.1 μM; cited from earlier work

| Compound | activity against AZT-resistant G-9106 strain of HIV [1] | activity against pyridinone-resistant A17 virus [2] | EC50 [3] | protection against the cytopathic effects of HIV-1 [4] | melting point |
| --- | --- | --- | --- | --- | --- |
| CCCc1cc(=O)oc2c3c(c4c(c12)OC(C)(C)C=C4)O[C@H](C)[C@@H](C)[C@@H]3O [(+)-calanolide A] | active | active | 100 nM | 100% | – |
| CCCc1cc(=O)oc2cc(OC(=O)C(C)(C)C)cc(O)c12 | – | – | – | – | 158 to 160 °C |
